# Test system: Amaranthus palmeri (AMAPA)
# Assay: Post-emergence greenhouse percent control of Amaranthus palmeri
# Format: in vivo
# Details: herbicide alone; for Observed control 7DAA: 7 days after application; for Observed control 14DAA: 14 days after application; for Observed control 21DAA: 21 days after application
# Experimental: Seeds of Amaranthus palmeri (AMAPA) were sown in vero beach potting soil and grown in a greenhouse. The herbicides, alone and in combination, were applied post-emergence when the weeds were 3 to 4-inches along with adjuvants 2.5% v/v AMSOL® and 1% v/v AgriDex® using a spray TT110015 nozzle providing 15 gallons/acre. Percent control evaluations were performed at 7, 14, and 21 days after application.
# Expected action was calculated by the Colby formula.
molecule,measurement,setting,value
"CS(=O)(=O)c1ccc(C(=O)C2C(=O)CCCC2=O)c([N+](=O)[O-])c1 [Mesotrione, mesotrione]",Observed control 7DAA,10 g ai/ha,75%
same,Observed control 14DAA,10 g ai/ha,63%
same,Observed control 21DAA,10 g ai/ha,62%
"O=c1cc(Cl)[nH]nc1-c1ccccc1 [Pyridafol, pyridafol]",Observed control 7DAA,2.5 g ai/ha,0%
same,Observed control 14DAA,2.5 g ai/ha,0%
same,Observed control 21DAA,2.5 g ai/ha,0%
same,Observed control 7DAA,5 g ai/ha,0%
same,Observed control 14DAA,5 g ai/ha,0%
same,Observed control 21DAA,5 g ai/ha,0%
same,Observed control 7DAA,10 g ai/ha,0%
same,Observed control 14DAA,10 g ai/ha,0%
same,Observed control 21DAA,10 g ai/ha,0%
same,Observed control 7DAA,27 g ai/ha,5%
same,Observed control 14DAA,27 g ai/ha,2%
same,Observed control 21DAA,27 g ai/ha,0%
same,Observed control 7DAA,57 g ai/ha,17%
same,Observed control 14DAA,57 g ai/ha,10%
same,Observed control 21DAA,57 g ai/ha,3%
same,Observed control 7DAA,87 g ai/ha,23%
same,Observed control 14DAA,87 g ai/ha,15%
same,Observed control 21DAA,87 g ai/ha,13%
same,Observed control 7DAA,117 g ai/ha,23%
same,Observed control 14DAA,117 g ai/ha,17%
same,Observed control 21DAA,117 g ai/ha,7%
bicyclopyrone,Observed control 7DAA,10 g ai/ha,72%
same,Observed control 14DAA,10 g ai/ha,60%
same,Observed control 21DAA,10 g ai/ha,57%
